Source: ChEMBL document CHEMBL4402560, “Sarco/Endoplasmic Reticulum Calcium ATPase Inhibitors: Beyond Anticancer Perspective” (J Med Chem, 2020)

Experiments:
[1] = Inhibition of SERCA (unknown origin); design: species or system Homo sapiens
[2] = system: HeLa; test: Antiproliferative activity against human HeLa cells; assay type: functional, cell-based
[3] = target: Sarcoplasmic/endoplasmic reticulum calcium ATPase 1 (Mus musculus) (UniProt Q8R429); test: Inhibition of SERCA1 in C57BL/6 mouse primary neurons at 30 uM by UV-Vis spectrophotometric method relative to control
[4] = target: Sarcoplasmic/endoplasmic reticulum calcium ATPase 2 (Mus musculus) (UniProt O55143); test: Inhibition of SERCA2 in C57BL/6 mouse primary neurons at 30 uM by UV-Vis spectrophotometric method relative to control
[5] = target: T1, Sarcoplasmic/endoplasmic reticulum calcium ATPase 1 (Oryctolagus cuniculus, UniProt P04191); test: Inhibition of rabbit SERCA1a incubated for 10 mins by enzyme-coupled method
[6] = Inhibition of SERCA in chicken cerebellar microsomes; design: species or system Gallus gallus, Cerebellum
[7] = target: T1, Sarcoplasmic/endoplasmic reticulum calcium ATPase 1; test: Inhibition of rabbit SERCA1a
[8] = Inhibition of fish liver microsomes SERCA by enzyme-coupled method; design: species or system Squalius cephalus
[9] = target: T1, Sarcoplasmic/endoplasmic reticulum calcium ATPase 1; test: Inhibition of SERCA1a in rabbit microsomes
[10] = target: Sarcoplasmic/endoplasmic reticulum calcium ATPase 3 (Mus musculus, UniProt Q64518); test: Inhibition of SERCA3 in mouse testicular microsomes; design: species or system Testis
[11] = target: Sarcoplasmic/endoplasmic reticulum calcium ATPase 2 (Mus musculus, UniProt O55143); test: Inhibition of SERCA2b in mouse testicular microsomes; design: species or system Testis
[12] = Competitive inhibition of SERCA (unknown origin) by liquid scintillation counting method; design: species or system Homo sapiens
[13] = target: T1, Sarcoplasmic/endoplasmic reticulum calcium ATPase 1; test: Inhibition of rabbit skeletal muscle microsomes SERCA1a
[14] = target: Sodium/potassium-transporting ATPase; test: Competitive inhibition of Sodium/potassium-transporting ATPase (unknown origin) by liquid scintillation counting method; assay type: protein-complex assay, Homo sapiens
[15] = Inhibition of porcine cerebellar microsomes SERCA2b incubated for 10 mins by enzyme-coupled method; design: species or system Sus scrofa domesticus, Cerebellum
[16] = target: T1, Sarcoplasmic/endoplasmic reticulum calcium ATPase 1; test: Inhibition of rabbit skeletal muscle microsomes SERCA1a incubated for 10 mins by enzyme-coupled method
[17] = Inhibition of rabbit skeletal muscle microsomes SERCA incubated for 3 mins by [gamma32P]ATP based radiometric assay; design: species or system Oryctolagus cuniculus
[18] = target: Sarcoplasmic/endoplasmic reticulum calcium ATPase 1 (Homo sapiens, UniProt O14983); test: Inhibition of SERCA1a (unknown origin) incubated for 10 mins by enzyme-coupled method
[19] = Inhibition of Sodium/potassium-transporting ATPase in dog kidney peincubated for 5 mins followed by addition of ATP and measured after 15 mins; assay type: tissue-based, Canis lupus familiaris
[20] = Inhibition of Sodium/potassium-transporting ATPase in guinea pig heart peincubated for 5 mins followed by addition of ATP and measured after 15 mins; assay type: tissue-based, Cavia porcellus
[21] = Inhibition of Sodium/potassium-transporting ATPase in guinea pig brain peincubated for 5 mins followed by addition of ATP and measured after 15 mins; assay type: tissue-based, Cavia porcellus
[22] = Inhibition of Sodium/potassium-transporting ATPase in porcine brain peincubated for 5 mins followed by addition of ATP and measured after 15 mins; assay type: tissue-based, Sus scrofa domesticus
[23] = target: Potassium-transporting ATPase (Sus scrofa, UniProt P19156); test: Inhibition of pig gastric mucosa Potassium-transporting ATPase by malachite green based colorimetric method; assay type: protein-complex assay, Sus scrofa domesticus
[24] = species on record: Oryctolagus cuniculus; test: Inhibition of rabbit kidney Sodium/potassium-transporting ATPase by PK/LDH method
[25] = species on record: Oryctolagus cuniculus; test: Inhibition of rabbit kidney Sodium/potassium-transporting ATPase by malachite green based colorimetric method

T1 sequence (P04191 whole entry): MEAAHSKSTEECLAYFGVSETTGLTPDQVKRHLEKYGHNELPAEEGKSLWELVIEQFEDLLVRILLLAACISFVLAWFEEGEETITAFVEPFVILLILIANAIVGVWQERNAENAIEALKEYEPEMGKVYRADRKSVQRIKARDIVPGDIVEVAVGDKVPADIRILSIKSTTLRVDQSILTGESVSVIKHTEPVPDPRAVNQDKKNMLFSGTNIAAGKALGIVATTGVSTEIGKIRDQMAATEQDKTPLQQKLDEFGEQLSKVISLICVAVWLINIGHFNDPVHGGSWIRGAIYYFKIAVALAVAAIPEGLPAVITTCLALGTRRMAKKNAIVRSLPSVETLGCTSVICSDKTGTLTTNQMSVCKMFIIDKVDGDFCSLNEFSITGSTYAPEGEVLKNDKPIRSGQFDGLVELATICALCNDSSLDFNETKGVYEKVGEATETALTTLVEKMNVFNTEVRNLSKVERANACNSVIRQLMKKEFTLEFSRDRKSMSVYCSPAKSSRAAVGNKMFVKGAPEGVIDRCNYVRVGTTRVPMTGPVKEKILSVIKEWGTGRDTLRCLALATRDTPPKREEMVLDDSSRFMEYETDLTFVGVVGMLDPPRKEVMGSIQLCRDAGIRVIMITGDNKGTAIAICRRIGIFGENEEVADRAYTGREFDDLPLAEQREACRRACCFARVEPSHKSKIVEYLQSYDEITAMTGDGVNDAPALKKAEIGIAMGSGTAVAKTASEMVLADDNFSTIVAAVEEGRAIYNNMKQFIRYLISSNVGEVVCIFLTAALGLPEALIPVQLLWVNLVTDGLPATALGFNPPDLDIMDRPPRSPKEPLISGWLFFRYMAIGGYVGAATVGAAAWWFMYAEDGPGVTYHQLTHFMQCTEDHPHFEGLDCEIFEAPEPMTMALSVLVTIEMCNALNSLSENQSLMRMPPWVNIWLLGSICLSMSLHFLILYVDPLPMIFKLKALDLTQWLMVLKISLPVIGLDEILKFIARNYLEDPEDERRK
Chain of Sarcoplasmic/endoplasmic reticulum calcium ATPase 3 (Q64518 whole entry): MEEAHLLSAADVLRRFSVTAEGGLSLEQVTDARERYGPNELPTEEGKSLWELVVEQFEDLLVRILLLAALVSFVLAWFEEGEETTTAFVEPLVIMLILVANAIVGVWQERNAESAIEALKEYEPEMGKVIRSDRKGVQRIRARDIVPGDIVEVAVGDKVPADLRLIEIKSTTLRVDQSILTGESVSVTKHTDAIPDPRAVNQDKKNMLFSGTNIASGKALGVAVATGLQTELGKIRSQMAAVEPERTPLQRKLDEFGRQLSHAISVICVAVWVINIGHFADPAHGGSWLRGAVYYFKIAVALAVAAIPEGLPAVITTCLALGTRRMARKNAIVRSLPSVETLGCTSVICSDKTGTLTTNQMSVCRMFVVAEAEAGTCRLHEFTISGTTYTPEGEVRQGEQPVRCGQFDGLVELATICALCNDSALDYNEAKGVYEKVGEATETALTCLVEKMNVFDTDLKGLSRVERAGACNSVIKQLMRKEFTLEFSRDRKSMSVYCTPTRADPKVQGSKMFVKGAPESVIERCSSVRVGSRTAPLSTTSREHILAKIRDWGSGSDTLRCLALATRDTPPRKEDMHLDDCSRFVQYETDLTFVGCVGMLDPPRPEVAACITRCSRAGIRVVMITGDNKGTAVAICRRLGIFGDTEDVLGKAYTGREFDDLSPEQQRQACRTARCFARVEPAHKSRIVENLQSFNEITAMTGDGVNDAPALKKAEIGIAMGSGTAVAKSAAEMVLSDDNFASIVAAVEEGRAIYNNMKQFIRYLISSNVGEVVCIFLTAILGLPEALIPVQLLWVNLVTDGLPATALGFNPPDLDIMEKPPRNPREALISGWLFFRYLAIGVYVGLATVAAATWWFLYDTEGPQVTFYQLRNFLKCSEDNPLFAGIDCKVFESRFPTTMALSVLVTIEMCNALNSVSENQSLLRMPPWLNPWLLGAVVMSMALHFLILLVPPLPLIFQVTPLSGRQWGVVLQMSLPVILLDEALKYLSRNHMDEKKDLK
Chain of Potassium-transporting ATPase (P18434 whole entry): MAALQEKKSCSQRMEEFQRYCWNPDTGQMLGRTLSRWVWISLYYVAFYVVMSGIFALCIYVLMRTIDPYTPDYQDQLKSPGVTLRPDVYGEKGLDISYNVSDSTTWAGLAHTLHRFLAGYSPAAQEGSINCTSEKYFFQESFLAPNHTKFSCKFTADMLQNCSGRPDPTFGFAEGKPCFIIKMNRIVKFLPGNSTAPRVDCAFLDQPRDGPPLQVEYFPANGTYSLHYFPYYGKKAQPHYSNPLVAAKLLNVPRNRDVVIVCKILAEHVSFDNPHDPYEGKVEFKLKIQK
Chain of Potassium-transporting ATPase (P19156 whole entry): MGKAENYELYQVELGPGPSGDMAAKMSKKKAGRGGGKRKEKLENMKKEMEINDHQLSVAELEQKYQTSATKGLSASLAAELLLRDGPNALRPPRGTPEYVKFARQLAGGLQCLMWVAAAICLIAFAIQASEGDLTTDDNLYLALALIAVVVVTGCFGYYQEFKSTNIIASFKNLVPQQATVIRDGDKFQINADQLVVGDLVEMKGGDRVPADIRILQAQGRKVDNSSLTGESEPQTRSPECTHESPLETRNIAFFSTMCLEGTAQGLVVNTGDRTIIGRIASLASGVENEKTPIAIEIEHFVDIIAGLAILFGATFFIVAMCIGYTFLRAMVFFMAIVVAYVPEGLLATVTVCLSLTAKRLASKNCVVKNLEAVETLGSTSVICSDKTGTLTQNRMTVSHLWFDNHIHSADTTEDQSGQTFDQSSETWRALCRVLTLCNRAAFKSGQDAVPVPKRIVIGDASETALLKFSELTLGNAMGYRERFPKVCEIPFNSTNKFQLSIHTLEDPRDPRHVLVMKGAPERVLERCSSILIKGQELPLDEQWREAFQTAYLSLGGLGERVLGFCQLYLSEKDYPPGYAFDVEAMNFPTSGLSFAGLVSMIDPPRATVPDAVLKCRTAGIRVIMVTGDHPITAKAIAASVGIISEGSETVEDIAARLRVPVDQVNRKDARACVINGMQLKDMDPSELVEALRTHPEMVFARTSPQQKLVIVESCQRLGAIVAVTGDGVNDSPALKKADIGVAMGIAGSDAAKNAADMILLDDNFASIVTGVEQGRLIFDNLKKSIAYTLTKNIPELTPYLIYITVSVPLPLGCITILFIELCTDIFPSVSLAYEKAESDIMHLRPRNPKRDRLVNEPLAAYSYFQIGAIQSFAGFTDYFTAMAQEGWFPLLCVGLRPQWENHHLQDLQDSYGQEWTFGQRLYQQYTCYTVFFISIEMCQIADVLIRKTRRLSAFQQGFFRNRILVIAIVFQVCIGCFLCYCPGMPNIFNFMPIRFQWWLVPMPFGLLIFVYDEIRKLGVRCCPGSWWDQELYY
Chain of Sarcoplasmic/endoplasmic reticulum calcium ATPase 1 (Mus musculus) (Q8R429 whole entry): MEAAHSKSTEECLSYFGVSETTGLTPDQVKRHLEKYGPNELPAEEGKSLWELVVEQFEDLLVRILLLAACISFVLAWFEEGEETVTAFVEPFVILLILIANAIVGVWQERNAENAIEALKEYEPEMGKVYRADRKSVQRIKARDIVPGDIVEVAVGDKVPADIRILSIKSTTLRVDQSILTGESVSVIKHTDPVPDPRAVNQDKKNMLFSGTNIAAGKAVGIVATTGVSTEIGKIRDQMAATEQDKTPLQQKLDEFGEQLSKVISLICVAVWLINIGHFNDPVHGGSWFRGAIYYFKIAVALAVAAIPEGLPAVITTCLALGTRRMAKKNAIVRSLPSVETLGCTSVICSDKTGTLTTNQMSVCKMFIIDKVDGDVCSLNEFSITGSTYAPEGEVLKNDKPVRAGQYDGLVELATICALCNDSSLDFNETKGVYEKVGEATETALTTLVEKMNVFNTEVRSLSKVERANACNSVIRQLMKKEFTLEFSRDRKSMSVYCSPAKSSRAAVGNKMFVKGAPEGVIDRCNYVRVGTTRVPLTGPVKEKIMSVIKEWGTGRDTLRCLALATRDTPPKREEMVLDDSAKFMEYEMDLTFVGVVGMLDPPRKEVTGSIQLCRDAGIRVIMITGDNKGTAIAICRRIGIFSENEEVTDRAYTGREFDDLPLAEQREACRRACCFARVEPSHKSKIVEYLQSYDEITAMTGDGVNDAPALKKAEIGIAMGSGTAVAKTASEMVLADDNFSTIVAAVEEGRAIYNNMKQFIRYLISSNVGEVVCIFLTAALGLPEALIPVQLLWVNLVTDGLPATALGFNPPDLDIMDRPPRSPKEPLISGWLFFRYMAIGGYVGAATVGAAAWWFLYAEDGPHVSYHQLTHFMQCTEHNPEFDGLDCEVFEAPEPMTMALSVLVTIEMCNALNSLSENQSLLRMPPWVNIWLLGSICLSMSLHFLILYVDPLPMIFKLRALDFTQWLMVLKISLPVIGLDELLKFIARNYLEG

C[C@H]1O[C@@H](O[C@H]2CC[C@@]3(C)[C@@H](CC[C@]4(C)[C@@H]3C=C[C@]35OC[C@@]6(CCC(C)(C)C[C@H]63)[C@H](O)C[C@]54C)[C@]2(C)CO)[C@H](O)[C@@H](O[C@@H]2O[C@H](CO)[C@@H](O)[C@H](O)[C@H]2O)[C@H]1O showed an IC50 [1] of 50 µM, an IC50 [2] of 10 µM and an inhibition [3] of 10%. The inhibition [4] was 18%.
C/C=C(\C)C(=O)O[C@@H]1C[C@H]2C(=C1C)[C@@H]1OC(=O)[C@@](C)(O)[C@@]1(O)[C@@H](OC(=O)[C@H](C)CC)C[C@@]2(C)OC(C)=O gave an IC50 [5] of 20 µM.
For SODIUM ORTHOVANAD, the IC50 [6] was 10 to 100 µM.
CCCCCCCCCc1ccc(O)cc1 [4-NONYLPHENOL] showed an IC50 [7] of 0.35 to 6 µM, an IC50 [8] of 4 µM and an IC50 [9] of 0.35 to 6 µM. The IC50 [10] was 0.35 to 6 µM and the IC50 [11] was 0.35 to 6 µM.
Work on N=C(N)SCc1cc(CSC(=N)N)c(Br)c(CSC(=N)N)c1Br yielded a Ki [12] of 20 µM, an IC50 [13] of 29 µM and a Ki [14] of 0.32 µM.
Compound Clc1ccc(C(c2ccc(Cl)cc2)[n+]2ccn(CC(OCc3ccc(Cl)cc3Cl)c3ccc(Cl)cc3Cl)c2)cc1 (configuration not stated) [CALMIDAZOLIUM CHLORIDE] has an IC50 [15] of 0.5 µM and an IC50 [16] of 0.5 µM.
In the case of COc1ccc2c(c[n+](C)c3c4cc5c(cc4ccc23)OCO5)c1OC [CHELERYTHRINE], the IC50 [17] is reported as 1.5 µM, the IC50 [16] is reported as 1.2 µM and the IC50 [18] is reported as 27 µM.
CC1=CCC[C@@H]2[C@@](C)(CC/C(C)=C/Cn3c[n+](C)c4ncnc(N)c43)[C@H](C)CC[C@@]12C gave an IC50 [19] of 11 to 29 µM, an IC50 [20] of 11 to 29 µM and an IC50 [1] of 5.58 µM. The IC50 [21] was 11 to 29 µM and the IC50 [22] was 11 to 29 µM.
Compound Clc1ccccc1C(c1ccccc1)(c1ccccc1)n1ccnc1 [CLOTRIMAZOLE] has an IC50 [23] of 5.2 µM, a K0.5 [24] of 24 to 30 µM and a K0.5 [25] of 24 to 30 µM.
